Data as given in patent US20170044471A1, “Sulfate-Free Liquid Laundry Detergent” (The Sun Products Corporation, priority 2015, published 2017).
Read-outs that look alike come from different tables or passages of the source.

What was measured:
[1] = tested on: Zein; details: normalized to SLS as 100%; Stepan Chemical company literature; cited from earlier work
[2] = tested on: Zein corn protein; assay: Zein test (Zein score, skin irritation potential); details: 1 wt % active surfactant solution
Excerpt: (§1) Zein score can be measured using a Zein test (Gott, E., Aesthet. Medzin., Tenside 15: 313 (1966)), although other methodologies are known in the art. The Zein test determines the extent of denaturation of Zein corn protein after exposure to a surfactant for a given period of time. The higher the Zein score, the greater the skin irritation potential.
(§2) Zein scores for formulations (or detergent products) described herein refer to Zein scores obtained when a 10% dilution of a given formulation (or detergent product) is tested. Zein scores for individual surfactants refer to Zein scores obtained from testing 1% active surfactant solutions.
(§3) The “test surfactant solution” can be a solution with 1 wt % active surfactant when a surfactant is tested by itself Alternatively, the test surfactant solution can be a 10 wt % dilution of a formulation or product described herein. […] An aliquot (3.0 mL) was accurately measured and removed and set aside in a closed container as a blank solution. […] If all of the Zein protein was dissolved, 1 gram of additional Zein protein was added so that some solid remained undissolved. The mixture was stirred for one hour at room temperature. Undissolved Zein was then removed by filtration to obtain a filtrate solution. A 3.0 ml aliquot of the filtrate solution was accurately measured and placed in a tared aluminum pan and dried in an oven at 70° C. The percent of solids was calculated. Likewise, the blank solution was dried at 70° C. and the solids content of this 3 mL aliquot was determined. The solid weight in the blank solution was subtracted from the solid weight in the filtration solution and the quantity of dissolved Zein in the filtration solution was calculated by difference and reported as g Zein/100 g surfactant solution (also called “% Zein” or “Zein score”).
(§4) As a control, a Zein score was also measured for the Commercial Comparator using a 10% dilution.

[3] = tested on: Zein corn protein
Excerpt: as §1, §2, §3, §4

Compound | Normalized Zein Score of Surfactant [1] [%] | % Zein (g/100 g surfactant solution) [2] | % Zein (g/100 g surfactant solution) [3]
CCCCCCCCCCC(C(=O)OC)S(=O)(=O)O.[Na] (centres unmarked) [MES, Sodium methyl 2-sulfolaurate] | 68 |  | 
CCCCCCCCCCCCOS(=O)(=O)[O-].[Na+] [Sodium lauryl sulfate (SLS), Sodium lauryl sulfate] |  | 2.70 g/100 g surfactant solution | 
Cocoamidopropyl betaine [Cocoamidopropyl betaine (CAPB)] | 30 |  | 0.56 g/100 g surfactant solution
Disodium Laureth Sulfosuccinate [STEPAN-MILD SL3-BA] | 44 |  | 
Methyl ester sulfonate C16-C18 [Methyl ester sulfonate C16-C18 (MES)] |  |  | 1.55 g/100 g surfactant solution
Sodium C14-16 Olefin Sulfonate (AOS) [BIO-TERGE AS-40] | 75 |  | 
Sodium Methyl Cocoyl Taurate [Pureact WS Conc.] | 45 |  | 
